# Data published in patent publication US9295732B2, “Conjugated TLR7 and/or TLR8 and TLR2 polycationic agonists” (CAYLA, priority 2013, dated 2016).
# “And” between values parts separate entries of the source, which are not always exact repeats. Identical values can stand only once.
# Legend:
# [1] = system: endogenous TLR2 and TLR7 in RAW-Blue™ Cells; test: RAW-Blue Cells NF-κB/AP-1 SEAP reporter assay; type: cell-based, mouse; details: 24 hours, OD at 655 nm, FIG. 4
# Protocol: (§1) Cell-based assays were carried out using TLR7 and TLR2 reporter cell lines (InvivoGen). The reporter cell lines are engineered HEK293 cells, a human embryonic kidney cell line (ATCC, CRL-1573) that stably express either murine TLR7 (HEK-Blue™ mTLR7) or human TLR7 (HEK-Blue™ hTLR7) or human TLR2 (HEK-Blue™ hTLR2) with an NF-κB-inducible secreted embryonic alkaline phosphatase (SEAP) as the reporter gene. The SEAP reporter gene is under the control of the NF-κB and AP-1-inducible promoter, which, upon treatment with a corresponding TLR ligand and activation of NF-κB and AP-1, induces the production of SEAP. Detection of SEAP is measured following culturing cells in HEK-Blue™ Detection media (InvivoGen). HEK-Blue™ Detection contains a SEAP substrate that when hydrolysed by SEAP produces a colorimetric change allowing for detection of SEAP as the protein is secreted. […] These assays were carried out using RAW-Blue™ Cells (InvivoGen), derived from RAW 264.7 mouse leukemic monocyte macrophage cell line (ATCC, CRL 2278) stably overexpressing a NF-B/AP-1 inducible SEAP reporter constructs.
# (§2) To perform the assay, cells were seeded on 96 well microliter plates at 50,000 or 100,000 cells per well for HEK-Blue™ Cells and RAW-Blue™ Cells respectively, and cultured at 37° C. in the presence of the conjugated compounds The TLR7-TLR2 polyamine molecules were prepared as follows: First, stock solutions of the conjugated compounds of the invention were prepared in ethanol or water to a concentration of 10 mg/ml.
# (§3) The working dilutions of the conjugated TLR7-TLR2 polyamine agonists made up in water or PBS were directly added to the reporter cell lines at a final concentration ranging from 10 μg/mL to 10 pg/ml and incubated at 37° C. for 24 hours. After 24 hours of incubation, the effect on reporter gene activity was determined by reading the OD at 655 nm using iMark™ Microplate Reader (BIO-RAD).
# human TLR7 = biological target: T1, human TLR7 (Homo sapiens, UniProt Q9NYK1); test: HEK-Blue hTLR7 NF-κB/AP-1 SEAP reporter assay; type: cell-based; details: HEK-Blue hTLR7 cells, 10 μg/mL to 10 pg/ml, 24 hours, OD at 655 nm, FIG. 1
# T1 construct: host or cells: HEK293 (HEK-Blue™ hTLR7)
# T1 sequence (Q9NYK1 27-1049): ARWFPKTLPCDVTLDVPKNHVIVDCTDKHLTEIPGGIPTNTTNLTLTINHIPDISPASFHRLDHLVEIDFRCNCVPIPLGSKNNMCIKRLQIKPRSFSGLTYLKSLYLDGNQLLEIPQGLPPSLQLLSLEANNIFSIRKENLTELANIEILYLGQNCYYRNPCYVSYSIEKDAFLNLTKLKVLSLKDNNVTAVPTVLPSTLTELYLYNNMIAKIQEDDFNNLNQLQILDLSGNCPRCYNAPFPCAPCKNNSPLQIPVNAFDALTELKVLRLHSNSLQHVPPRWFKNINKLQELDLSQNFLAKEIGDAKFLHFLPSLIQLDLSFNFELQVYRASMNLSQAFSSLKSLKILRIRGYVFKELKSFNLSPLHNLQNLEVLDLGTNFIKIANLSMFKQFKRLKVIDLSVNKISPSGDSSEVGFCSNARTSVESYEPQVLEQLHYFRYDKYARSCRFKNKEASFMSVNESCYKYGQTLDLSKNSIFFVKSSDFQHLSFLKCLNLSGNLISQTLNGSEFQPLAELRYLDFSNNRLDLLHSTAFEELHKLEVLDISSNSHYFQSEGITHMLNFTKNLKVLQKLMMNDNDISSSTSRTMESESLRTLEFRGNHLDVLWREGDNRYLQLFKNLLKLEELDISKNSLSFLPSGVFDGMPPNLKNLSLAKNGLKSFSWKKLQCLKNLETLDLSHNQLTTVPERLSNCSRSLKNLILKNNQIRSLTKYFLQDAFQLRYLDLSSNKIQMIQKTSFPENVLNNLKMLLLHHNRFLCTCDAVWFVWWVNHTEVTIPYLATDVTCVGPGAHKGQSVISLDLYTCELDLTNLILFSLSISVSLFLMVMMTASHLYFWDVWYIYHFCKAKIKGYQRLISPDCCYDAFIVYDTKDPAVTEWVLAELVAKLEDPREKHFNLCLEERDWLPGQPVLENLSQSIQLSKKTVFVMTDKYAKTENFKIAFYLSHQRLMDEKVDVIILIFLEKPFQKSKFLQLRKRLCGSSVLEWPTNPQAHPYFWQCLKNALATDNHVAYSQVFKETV
# Protocol: as §1, §2, §3
# plasmid DNA (pDNA) = test: Gel shift (mobility shift) assay of pDNA complexation; type: binding; details: pDNA:molecule ratio 3:24 (w:w), 0.8% agarose gel, compared to pDNA alone
# Protocol: Then, 10 μl of pDNA:TLR7-TLR2 polyamine molecule complexes and 2 μl of charge buffer were mixed and loaded into wells of a 0.8% agarose gel. Samples were migrated through the gel in TAE buffer under 135 voltage for 21 mins and the migration of the pDNA was visualized following ethidium bromide staining under UV light. The ability of TLR7-TLR2 polyamine molecules to complex/associate with the pDNA was identified by partial or complete retardation of the pDNA migration toward the anode in the gel compared to pDNA alone. […] Ethidium bromide intercalation of pDNA in complex with molecules allowed visualization of complexed pDNA as a smear in the wells of the gel.
# human TLR2 = biological target: T2, human TLR2 (Homo sapiens, UniProt O60603); test: HEK-Blue hTLR2 NF-κB/AP-1 SEAP reporter assay; type: cell-based; details: HEK-Blue hTLR2 cells, 10 μg/mL to 10 pg/ml, 24 hours, OD at 655 nm, FIG. 3
# T2 construct: host or cells: HEK293 (HEK-Blue™ hTLR2)
# Protocol: as §1, §2, §3
# murine TLR7 = biological target: T3, murine TLR7 (Mus musculus, UniProt P58681); test: HEK-Blue mTLR7 NF-κB/AP-1 SEAP reporter assay; type: cell-based; details: HEK-Blue mTLR7 cells, 10 μg/mL to 10 pg/ml, 24 hours, OD at 655 nm, FIG. 2
# T3 construct: host or cells: HEK293 (HEK-Blue™ mTLR7)
# T3 sequence (P58681 27-1050): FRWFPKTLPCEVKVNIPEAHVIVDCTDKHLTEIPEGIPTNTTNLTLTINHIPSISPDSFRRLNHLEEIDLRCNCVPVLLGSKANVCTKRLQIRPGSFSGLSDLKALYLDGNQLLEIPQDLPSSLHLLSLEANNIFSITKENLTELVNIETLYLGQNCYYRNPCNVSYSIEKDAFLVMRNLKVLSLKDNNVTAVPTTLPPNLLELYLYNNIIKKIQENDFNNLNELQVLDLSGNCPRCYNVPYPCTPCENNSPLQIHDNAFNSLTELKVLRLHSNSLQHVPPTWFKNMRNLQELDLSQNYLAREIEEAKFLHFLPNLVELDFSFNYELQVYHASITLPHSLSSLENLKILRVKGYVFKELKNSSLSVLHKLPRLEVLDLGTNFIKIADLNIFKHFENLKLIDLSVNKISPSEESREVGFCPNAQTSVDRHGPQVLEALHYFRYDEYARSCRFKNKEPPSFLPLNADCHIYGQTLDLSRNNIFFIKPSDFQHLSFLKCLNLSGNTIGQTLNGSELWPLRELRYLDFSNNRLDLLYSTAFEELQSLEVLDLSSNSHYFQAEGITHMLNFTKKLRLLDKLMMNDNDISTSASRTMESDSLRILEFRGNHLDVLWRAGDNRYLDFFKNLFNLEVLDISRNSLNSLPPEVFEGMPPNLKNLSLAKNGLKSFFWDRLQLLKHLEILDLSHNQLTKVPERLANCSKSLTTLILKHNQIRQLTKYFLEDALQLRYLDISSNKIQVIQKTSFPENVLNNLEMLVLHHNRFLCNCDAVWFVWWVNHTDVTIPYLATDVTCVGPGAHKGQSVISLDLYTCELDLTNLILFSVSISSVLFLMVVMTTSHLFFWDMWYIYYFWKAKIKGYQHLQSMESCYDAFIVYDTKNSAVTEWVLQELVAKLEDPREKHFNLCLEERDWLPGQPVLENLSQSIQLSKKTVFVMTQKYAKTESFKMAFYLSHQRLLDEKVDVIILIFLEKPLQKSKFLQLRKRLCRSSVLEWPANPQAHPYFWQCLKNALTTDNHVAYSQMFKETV
# Protocol: as §1, §2, §3
# [2] = Nanoparticle (lipoplex) size by dynamic light scattering; details: 25° C., triplicate;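 further: lipoplexes of TLR7-TLR2 polyamine conjugates with plasmid DNA, formed over 30 min at room temperature in serum-free medium or 5% glucose, diameter in nm, PDI dimensionless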
# B16-F1 tumor = test: In vivo mouse B16-F1 tumor model, molecule alone; set-up: species or system C57BL/6 mice; details: by day 42, intra-tumoral injections, FIG. 8B
# Protocol: Measurements were performed under gas anesthesia.
# The second group received intra-tumoral injections of CL413 molecule alone (a TLR7-TLR2 Pam2CSK4-based molecule). Third and forth groups received intra-tumoral injections of the TLR2 ligand, Pam2CSK4 alone, and the TLR7 ligand alone, respectively. A fifth group received a combined treatment of Pam2CSK4 and TLR7 ligand, in solution at the equivalent molecule quantity of the respective TLR2 and TLR7 moieties in CL413 (in 100 μl Bionolyte G5® with Pluronic® F-68 2%) for a total of 3 injections.
# T2 sequence (O60603 21-784): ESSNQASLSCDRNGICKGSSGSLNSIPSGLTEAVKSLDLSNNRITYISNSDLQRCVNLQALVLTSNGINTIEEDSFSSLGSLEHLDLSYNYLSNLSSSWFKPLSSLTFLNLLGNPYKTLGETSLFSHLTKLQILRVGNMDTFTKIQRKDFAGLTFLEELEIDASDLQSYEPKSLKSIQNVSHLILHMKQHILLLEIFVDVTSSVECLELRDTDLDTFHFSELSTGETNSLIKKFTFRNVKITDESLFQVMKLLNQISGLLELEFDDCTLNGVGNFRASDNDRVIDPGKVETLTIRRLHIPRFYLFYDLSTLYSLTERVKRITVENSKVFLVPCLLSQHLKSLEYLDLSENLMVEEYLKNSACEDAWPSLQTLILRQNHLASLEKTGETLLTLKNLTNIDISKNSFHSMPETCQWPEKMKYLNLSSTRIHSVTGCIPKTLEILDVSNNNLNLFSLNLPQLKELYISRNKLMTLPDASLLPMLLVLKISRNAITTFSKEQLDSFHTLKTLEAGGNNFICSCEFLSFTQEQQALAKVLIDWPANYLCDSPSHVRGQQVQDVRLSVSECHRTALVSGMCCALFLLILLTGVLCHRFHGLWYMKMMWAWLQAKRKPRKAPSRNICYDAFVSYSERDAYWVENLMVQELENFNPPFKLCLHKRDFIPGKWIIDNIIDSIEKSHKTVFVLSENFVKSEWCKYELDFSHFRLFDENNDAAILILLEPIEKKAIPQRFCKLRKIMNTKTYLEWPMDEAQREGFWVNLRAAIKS
Compound,ability to activate endogenous TLR2 and TLR7 in RAW-Blue Cells [1],ability to activate hTLR7 (human TLR7),ability to complex pDNA (retardation of pDNA migration in agarose gel) (plasmid DNA (pDNA)),ability to activate hTLR2 (human TLR2),ability to activate mTLR7 (murine TLR7),"Mean Diameter ([2]; complexes with pDNA 3:24 (w:w), dynamic light scattering)",PDI ([2]; polydispersity index of complexes with pDNA 3:24 (w:w)),mice still alive (survival) (B16-F1 tumor)
"CCCCCCCCCCCCCCCC(=O)OCC(CSC[C@H](N)C(=O)NCCCC[C@H](NC(=O)CNC(=O)c1ccc(Cn2c(O)nc3c(N)nc(NCCCC)nc32)cc1)C(=O)NCCCNCCCCNCCCN)OC(=O)CCCCCCCCCCCCCCC (stereo partly drawn) [CL487, (6R,13S)-6,27-diamino-13-(2-(4-((6-amino-2-(butylamino)-8-hydroxy-9H-purin-9-yl)methyl)benzamido)acetamido)-7,14-dioxo-4-thia-8,15,19,24-tetraazaheptacosane-1,2-diyl dipalmitate]",activate endogenous TLR2 and TLR7,activate hTLR7,inability to migrate through an agarose gel,activate hTLR2,activate mTLR7,165.6 nm and 160.0 nm and 148.1 nm,0.255 and 0.241 and 0.23,–
"dipalmitoyl-S-glyceryl cysteine-serine-(lysine)4 [Pam2CSK4, reference compound]",–,–,–,–,–,–,–,60%
